# Assay results as given in the NIST ThermoML archive (doi:10.1021/je060271a).
# ± gives the expanded uncertainty stated by the source.
# Settings: 303.16 K, Liquid, Vibrating tube method
smiles,measurement,setting,value
CCCC(=O)OCC(COC(=O)CCC)(COC(=O)CCC)COC(=O)CCC [pentaerythritol tetrabutyrate],mass density,6790.5 kPa,1046.6 ± 1.3 kg/m3
same,mass density,6817.3 kPa,1046.7 ± 1.3 kg/m3
same,mass density,6849.6 kPa,1046.6 ± 1.3 kg/m3
same,mass density,6876.7 kPa,1046.6 ± 1.3 kg/m3
same,mass density,6909 kPa,1046.7 ± 1.3 kg/m3
same,mass density,6936.8 kPa,1046.6 ± 1.3 kg/m3
same,mass density,6965.3 kPa,1046.7 ± 1.3 kg/m3
same,mass density,6993.5 kPa,1046.7 ± 1.3 kg/m3
same,mass density,7274.1 kPa,1047 ± 1.3 kg/m3
same,mass density,7311.4 kPa,1046.9 ± 1.3 kg/m3
same,mass density,7343 kPa,1046.9 ± 1.3 kg/m3
same,mass density,7374.1 kPa,1046.9 ± 1.3 kg/m3
same,mass density,7412.9 kPa,1047 ± 1.3 kg/m3
same,mass density,7446.2 kPa,1047 ± 1.3 kg/m3
same,mass density,7479.9 kPa,1047.1 ± 1.3 kg/m3
same,mass density,7515.1 kPa,1047 ± 1.3 kg/m3
same,mass density,7541.7 kPa,1047.1 ± 1.3 kg/m3
same,mass density,7566.7 kPa,1047.1 ± 1.3 kg/m3
same,mass density,7596.6 kPa,1047.2 ± 1.3 kg/m3
same,mass density,7622.5 kPa,1047.1 ± 1.3 kg/m3
same,mass density,7647.8 kPa,1047.1 ± 1.3 kg/m3
same,mass density,7673.7 kPa,1047.1 ± 1.3 kg/m3
same,mass density,7703.6 kPa,1047.1 ± 1.3 kg/m3
same,mass density,7729.5 kPa,1047.2 ± 1.3 kg/m3
same,mass density,7755.5 kPa,1047.2 ± 1.3 kg/m3
same,mass density,7786.9 kPa,1047.3 ± 1.3 kg/m3
same,mass density,7813.7 kPa,1047.3 ± 1.3 kg/m3
same,mass density,7840.6 kPa,1047.2 ± 1.3 kg/m3
same,mass density,7867.9 kPa,1047.3 ± 1.3 kg/m3
same,mass density,7895 kPa,1047.2 ± 1.3 kg/m3
same,mass density,7927.7 kPa,1047.2 ± 1.3 kg/m3
same,mass density,7955 kPa,1047.3 ± 1.3 kg/m3
same,mass density,7982.8 kPa,1047.3 ± 1.3 kg/m3
same,mass density,8016.1 kPa,1047.4 ± 1.3 kg/m3
same,mass density,8044.7 kPa,1047.3 ± 1.3 kg/m3
same,mass density,8073.5 kPa,1047.3 ± 1.3 kg/m3
same,mass density,8102.7 kPa,1047.4 ± 1.3 kg/m3
same,mass density,8125 kPa,1047.5 ± 1.3 kg/m3
same,mass density,8147.9 kPa,1047.5 ± 1.3 kg/m3
same,mass density,8175.2 kPa,1047.5 ± 1.3 kg/m3
same,mass density,8198.5 kPa,1047.5 ± 1.3 kg/m3
same,mass density,8222.3 kPa,1047.4 ± 1.3 kg/m3
same,mass density,8245.7 kPa,1047.6 ± 1.3 kg/m3
same,mass density,8273.3 kPa,1047.4 ± 1.3 kg/m3
same,mass density,8297.3 kPa,1047.5 ± 1.3 kg/m3
same,mass density,8325.9 kPa,1047.5 ± 1.3 kg/m3
same,mass density,8350.8 kPa,1047.6 ± 1.3 kg/m3
same,mass density,8373.4 kPa,1047.6 ± 1.3 kg/m3
same,mass density,8504.8 kPa,1047.7 ± 1.3 kg/m3
same,mass density,8527.9 kPa,1047.7 ± 1.3 kg/m3
same,mass density,8547 kPa,1047.6 ± 1.3 kg/m3
same,mass density,8565.8 kPa,1047.7 ± 1.3 kg/m3
same,mass density,8588.8 kPa,1047.8 ± 1.3 kg/m3
same,mass density,8607.6 kPa,1047.8 ± 1.3 kg/m3
same,mass density,8630.3 kPa,1047.7 ± 1.3 kg/m3
same,mass density,8649.3 kPa,1047.8 ± 1.3 kg/m3
same,mass density,8672.8 kPa,1047.8 ± 1.3 kg/m3
same,mass density,8693.1 kPa,1047.8 ± 1.3 kg/m3
same,mass density,8716 kPa,1047.9 ± 1.3 kg/m3
same,mass density,8735.5 kPa,1047.8 ± 1.3 kg/m3
same,mass density,8759.5 kPa,1047.9 ± 1.3 kg/m3
same,mass density,8783.6 kPa,1047.9 ± 1.3 kg/m3
same,mass density,8803.1 kPa,1047.9 ± 1.3 kg/m3
same,mass density,8823.4 kPa,1047.9 ± 1.3 kg/m3
same,mass density,8847.6 kPa,1047.9 ± 1.3 kg/m3
same,mass density,8867.8 kPa,1048 ± 1.3 kg/m3
same,mass density,8892.1 kPa,1047.9 ± 1.3 kg/m3
same,mass density,8916.2 kPa,1047.9 ± 1.3 kg/m3
same,mass density,8936.4 kPa,1047.9 ± 1.3 kg/m3
same,mass density,8960.7 kPa,1048 ± 1.3 kg/m3
same,mass density,8981.7 kPa,1047.9 ± 1.3 kg/m3
same,mass density,9006.9 kPa,1047.9 ± 1.3 kg/m3
same,mass density,9027.7 kPa,1048 ± 1.3 kg/m3
same,mass density,9053.1 kPa,1047.9 ± 1.3 kg/m3
same,mass density,9078.7 kPa,1048.1 ± 1.3 kg/m3
same,mass density,9099.8 kPa,1048 ± 1.3 kg/m3
same,mass density,9121 kPa,1048.1 ± 1.3 kg/m3
same,mass density,9146.6 kPa,1048 ± 1.3 kg/m3
same,mass density,9172.2 kPa,1048.1 ± 1.3 kg/m3
same,mass density,9193.2 kPa,1048.1 ± 1.3 kg/m3
same,mass density,9244.7 kPa,1048.2 ± 1.3 kg/m3
same,mass density,9266.6 kPa,1048.2 ± 1.3 kg/m3
same,mass density,9293.3 kPa,1048.3 ± 1.3 kg/m3
same,mass density,9315.9 kPa,1048.3 ± 1.3 kg/m3
same,mass density,9343.1 kPa,1048.2 ± 1.3 kg/m3
same,mass density,9366.4 kPa,1048.3 ± 1.3 kg/m3
same,mass density,9391.5 kPa,1048.3 ± 1.3 kg/m3
same,mass density,9419 kPa,1048.4 ± 1.3 kg/m3
same,mass density,9442.1 kPa,1048.2 ± 1.3 kg/m3
same,mass density,9469.3 kPa,1048.3 ± 1.3 kg/m3
same,mass density,9492.3 kPa,1048.3 ± 1.3 kg/m3
same,mass density,9519.7 kPa,1048.4 ± 1.3 kg/m3
same,mass density,9547.7 kPa,1048.4 ± 1.3 kg/m3
same,mass density,9571.3 kPa,1048.5 ± 1.3 kg/m3
same,mass density,9599.9 kPa,1048.3 ± 1.3 kg/m3
same,mass density,9623.9 kPa,1048.5 ± 1.3 kg/m3
same,mass density,9652 kPa,1048.3 ± 1.3 kg/m3
same,mass density,9680.6 kPa,1048.5 ± 1.3 kg/m3
same,mass density,9705 kPa,1048.4 ± 1.3 kg/m3
same,mass density,9730.4 kPa,1048.5 ± 1.3 kg/m3
same,mass density,9759.3 kPa,1048.5 ± 1.3 kg/m3
same,mass density,9783.6 kPa,1048.5 ± 1.3 kg/m3
same,mass density,9812.9 kPa,1048.6 ± 1.3 kg/m3
same,mass density,9843 kPa,1048.5 ± 1.3 kg/m3
same,mass density,9868 kPa,1048.4 ± 1.3 kg/m3
same,mass density,9898.3 kPa,1048.5 ± 1.3 kg/m3
same,mass density,9923.1 kPa,1048.5 ± 1.3 kg/m3
same,mass density,9953.2 kPa,1048.6 ± 1.3 kg/m3
same,mass density,9984.1 kPa,1048.6 ± 1.3 kg/m3
same,mass density,10010 kPa,1048.7 ± 1.3 kg/m3
same,mass density,10041 kPa,1048.7 ± 1.3 kg/m3
same,mass density,10067 kPa,1048.7 ± 1.3 kg/m3
same,mass density,10100 kPa,1048.8 ± 1.3 kg/m3
same,mass density,10126 kPa,1048.6 ± 1.3 kg/m3
same,mass density,10159 kPa,1048.7 ± 1.3 kg/m3
same,mass density,10186 kPa,1048.8 ± 1.3 kg/m3
same,mass density,10218 kPa,1048.7 ± 1.3 kg/m3
same,mass density,10245 kPa,1048.7 ± 1.3 kg/m3
same,mass density,10278 kPa,1048.8 ± 1.3 kg/m3
same,mass density,10305 kPa,1048.7 ± 1.3 kg/m3
same,mass density,10337 kPa,1048.9 ± 1.3 kg/m3
same,mass density,10371 kPa,1048.7 ± 1.3 kg/m3
same,mass density,10399 kPa,1048.8 ± 1.3 kg/m3
same,mass density,10432 kPa,1048.9 ± 1.3 kg/m3
same,mass density,10461 kPa,1048.9 ± 1.3 kg/m3
same,mass density,10496 kPa,1048.9 ± 1.3 kg/m3
same,mass density,10525 kPa,1048.8 ± 1.3 kg/m3
same,mass density,10560 kPa,1048.9 ± 1.3 kg/m3
same,mass density,10589 kPa,1049 ± 1.3 kg/m3
same,mass density,10624 kPa,1049 ± 1.3 kg/m3
same,mass density,10658 kPa,1049.1 ± 1.3 kg/m3
same,mass density,10687 kPa,1049 ± 1.3 kg/m3
same,mass density,10723 kPa,1049.1 ± 1.3 kg/m3
same,mass density,10753 kPa,1049 ± 1.3 kg/m3
same,mass density,10789 kPa,1049.2 ± 1.3 kg/m3
same,mass density,10820 kPa,1049.1 ± 1.3 kg/m3
same,mass density,10857 kPa,1049.1 ± 1.3 kg/m3
same,mass density,10894 kPa,1049.1 ± 1.3 kg/m3
same,mass density,10924 kPa,1049.2 ± 1.3 kg/m3
same,mass density,10961 kPa,1049.3 ± 1.3 kg/m3
same,mass density,10993 kPa,1049.2 ± 1.3 kg/m3
same,mass density,11031 kPa,1049.3 ± 1.3 kg/m3
same,mass density,11063 kPa,1049.3 ± 1.3 kg/m3
same,mass density,11101 kPa,1049.3 ± 1.3 kg/m3
same,mass density,11133 kPa,1049.4 ± 1.3 kg/m3
same,mass density,11171 kPa,1049.3 ± 1.3 kg/m3
